Results reported in US20040167033A1, “Herbicidal composition” (priority 2001, published 2004).

Tested on: maize
Assay: Pre-emergence test (Example B2), greenhouse pots, phytotoxicity on maize
Format: in vivo
Description: The test plants are sown in pots under greenhouse conditions. A standard soil is used as cultivation substrate. At a pre-emergence stage, the herbicides, both on their own and in admixture with safener, are applied to the soil surface or to cultivated plants seed-dressed with safener. The rates of application depend on the optimum doses ascertained under field conditions or greenhouse conditions. The tests are evaluated after from 2 to 4 weeks (100% action=complete destruction, 0% action=no phytotoxic action). The mixtures used in this test show good results.

CCc1cccc(C)c1N(C(=O)CCl)[C@@H](C)COC [S-metolachlor]
Phytotoxicity on maize (%) 15 days after application (Table B2.1, S-metolachlor 1000 g/ha (EC 960), safener of formula II row prints 1000 g/ha): 7% | Phytotoxicity on maize (%) 15 days after application (Table B2.1, S-metolachlor 2000 g/ha (EC 960), safener of formula II row prints 2000 g/ha): 20% | Phytotoxicity on maize (%) 15 days after application (Table B2.1, S-metolachlor 4000 g/ha (EC 960), safener of formula II row prints 4000 g/ha): 40% | Phytotoxicity on maize (%) 15 days after application (Table B2.1, S-metolachlor 6000 g/ha (EC 960), safener of formula II row prints 6000 g/ha, 100%=complete destruction): 53%
